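Here, GI50 denotes the concentration required for 50% inhibition of growth. TGI is the concentration that stops growth completely.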
Key:
Experiment in all cases: DTP human tumour cell line panel, 384-well format
SK-OV-3 ovarian = system: SK-OV-3 ovarian
IGROV1 ovarian = system: IGROV1 ovarian
BT-549 breast = system: BT-549 breast
SK-MEL-5 melanoma = system: SK-MEL-5 melanoma
HL-60(TB) leukemia = system: HL-60(TB) leukemia
LOX IMVI melanoma = system: LOX IMVI melanoma
NCI-H226 lung = system: NCI-H226 lung
MOLT-4 leukemia = system: MOLT-4 leukemia
SNB-19 CNS = system: SNB-19 CNS
MCF7 breast = system: MCF7 breast
SF-295 CNS = system: SF-295 CNS
DU-145 prostate = system: DU-145 prostate
M14 melanoma = system: M14 melanoma
HOP-92 NSCLC = system: HOP-92 NSCLC
U251 glioblastoma = system: U251 glioblastoma
MDA-MB-231 breast = system: MDA-MB-231 breast
NCI-H460 NSCLC = system: NCI-H460 NSCLC
UACC-257 melanoma = system: UACC-257 melanoma
SK-MEL-28 melanoma = system: SK-MEL-28 melanoma
OVCAR-5 ovarian = system: OVCAR-5 ovarian
HS 578T breast = system: HS 578T breast
HCT-15 colon = system: HCT-15 colon
COLO 205 colon = system: COLO 205 colon
OVCAR-8 ovarian = system: OVCAR-8 ovarian
UACC-62 melanoma = system: UACC-62 melanoma
A549 NSCLC = system: A549 NSCLC
OVCAR-4 ovarian = system: OVCAR-4 ovarian
NCI-H322M lung = system: NCI-H322M lung
PC-3 prostate = system: PC-3 prostate
TK-10 renal = system: TK-10 renal
EKVX NSCLC = system: EKVX NSCLC
OVCAR-3 ovarian = system: OVCAR-3 ovarian
HT29 colon = system: HT29 colon
NCI/ADR-RES ovarian = system: NCI/ADR-RES ovarian
NCI-H23 lung = system: NCI-H23 lung
SF-268 CNS = system: SF-268 CNS
HCC-2998 colon = system: HCC-2998 colon
SF-539 CNS = system: SF-539 CNS
MDA-MB-468 breast = system: MDA-MB-468 breast
A498 renal = system: A498 renal
HCT-116 colon = system: HCT-116 colon
RXF 393 renal = system: RXF 393 renal
CAKI-1 renal = system: CAKI-1 renal
MALME-3M melanoma = system: MALME-3M melanoma
ACHN renal = system: ACHN renal
MDA-MB-435 melanoma = system: MDA-MB-435 melanoma
SR leukemia = system: SR leukemia
SN12C renal = system: SN12C renal
RPMI-8226 leukemia = system: RPMI-8226 leukemia
SNB-75 CNS = system: SNB-75 CNS
KM12 colon = system: KM12 colon
NCI-H522 lung = system: NCI-H522 lung
HOP-62 NSCLC = system: HOP-62 NSCLC
T-47D breast = system: T-47D breast

CC(=O)O/N=C1/C(c2c(O)[nH]c3cc(Br)ccc23)=Nc2ccccc21
GI50 (SK-OV-3 ovarian): 275 nM
TGI (SK-OV-3 ovarian): 1330 nM
GI50 (IGROV1 ovarian): 157 nM
TGI (IGROV1 ovarian): 1350 nM
GI50 (BT-549 breast): 574 nM
TGI (BT-549 breast): 1910 nM
GI50 (SK-MEL-5 melanoma): 312 nM
TGI (SK-MEL-5 melanoma): 1660 nM
GI50 (HL-60(TB) leukemia): 495 nM
TGI (HL-60(TB) leukemia): 1150 nM
GI50 (LOX IMVI melanoma): 1110 nM
TGI (LOX IMVI melanoma): 2310 nM
GI50 (NCI-H226 lung): 257 nM
TGI (NCI-H226 lung): 1080 nM
GI50 (MOLT-4 leukemia): 1900 nM
TGI (MOLT-4 leukemia): 3320 nM
GI50 (SNB-19 CNS): 1470 nM
TGI (SNB-19 CNS): 2870 nM
GI50 (MCF7 breast): 582 nM
TGI (MCF7 breast): 2370 nM
GI50 (SF-295 CNS): 1000 nM
TGI (SF-295 CNS): 2320 nM
GI50 (DU-145 prostate): 1050 nM
TGI (DU-145 prostate): 2290 nM
GI50 (M14 melanoma): 1610 nM
TGI (M14 melanoma): 2970 nM
GI50 (HOP-92 NSCLC): 1250 nM
TGI (HOP-92 NSCLC): 2650 nM
GI50 (U251 glioblastoma): 1080 nM
TGI (U251 glioblastoma): 2280 nM
GI50 (MDA-MB-231 breast): 1300 nM
TGI (MDA-MB-231 breast): 2650 nM
GI50 (NCI-H460 NSCLC): 798 nM
TGI (NCI-H460 NSCLC): 2070 nM
GI50 (UACC-257 melanoma): 1720 nM
TGI (UACC-257 melanoma): 3100 nM
GI50 (SK-MEL-28 melanoma): 1670 nM
TGI (SK-MEL-28 melanoma): 3070 nM
GI50 (OVCAR-5 ovarian): 1980 nM
TGI (OVCAR-5 ovarian): 3400 nM
GI50 (HS 578T breast): 215 nM
TGI (HS 578T breast): 860 nM
GI50 (HCT-15 colon): 686 nM
TGI (HCT-15 colon): 1950 nM
GI50 (COLO 205 colon): 1270 nM
TGI (COLO 205 colon): 2530 nM
GI50 (OVCAR-8 ovarian): 1100 nM
TGI (OVCAR-8 ovarian): 2310 nM
GI50 (UACC-62 melanoma): 636 nM
TGI (UACC-62 melanoma): 1890 nM
GI50 (A549 NSCLC): 1460 nM
TGI (A549 NSCLC): 2840 nM
GI50 (OVCAR-4 ovarian): 1250 nM
TGI (OVCAR-4 ovarian): 2540 nM
GI50 (NCI-H322M lung): 727 nM
TGI (NCI-H322M lung): 2010 nM
GI50 (PC-3 prostate): 462 nM
TGI (PC-3 prostate): 1780 nM
GI50 (TK-10 renal): 356 nM
TGI (TK-10 renal): 1590 nM
GI50 (EKVX NSCLC): 505 nM
TGI (EKVX NSCLC): 2030 nM
GI50 (OVCAR-3 ovarian): 186 nM
TGI (OVCAR-3 ovarian): 946 nM
GI50 (HT29 colon): 1460 nM
TGI (HT29 colon): 2800 nM
GI50 (NCI/ADR-RES ovarian): 1240 nM
TGI (NCI/ADR-RES ovarian): 2520 nM
GI50 (NCI-H23 lung): 1470 nM
TGI (NCI-H23 lung): 2860 nM
GI50 (SF-268 CNS): 1050 nM
TGI (SF-268 CNS): 2250 nM
GI50 (HCC-2998 colon): 540 nM
TGI (HCC-2998 colon): 1980 nM
GI50 (SF-539 CNS): 505 nM
TGI (SF-539 CNS): 1690 nM
GI50 (MDA-MB-468 breast): 1320 nM
TGI (MDA-MB-468 breast): 2610 nM
GI50 (A498 renal): 182 nM
TGI (A498 renal): 496 nM
GI50 (HCT-116 colon): 1030 nM
TGI (HCT-116 colon): 2230 nM
GI50 (RXF 393 renal): 1010 nM
TGI (RXF 393 renal): 2220 nM
GI50 (CAKI-1 renal): 675 nM
TGI (CAKI-1 renal): 1970 nM
GI50 (MALME-3M melanoma): 1990 nM
TGI (MALME-3M melanoma): 4240 nM
GI50 (ACHN renal): 472 nM
TGI (ACHN renal): 1660 nM
GI50 (MDA-MB-435 melanoma): 1340 nM
TGI (MDA-MB-435 melanoma): 2630 nM
GI50 (SR leukemia): 1140 nM
TGI (SR leukemia): 2350 nM
GI50 (SN12C renal): 53.8 nM
TGI (SN12C renal): 710 nM
GI50 (RPMI-8226 leukemia): 685 nM
TGI (RPMI-8226 leukemia): 1860 nM
GI50 (SNB-75 CNS): 554 nM
TGI (SNB-75 CNS): 2040 nM
GI50 (KM12 colon): 532 nM
TGI (KM12 colon): 2010 nM
GI50 (NCI-H522 lung): 1480 nM
TGI (NCI-H522 lung): 2810 nM
GI50 (HOP-62 NSCLC): 1070 nM
TGI (HOP-62 NSCLC): 2260 nM
GI50 (T-47D breast): 1760 nM
TGI (T-47D breast): 3230 nM
